Data on 26 targets can be found in the supplement of paper PMC6411743.

Compound in one assay: Nc1nc2c(ncn2[C@@H]2O[C@H](COP(=O)(O)OP(=O)(O)OP(=O)(O)O)[C@@H](O)[C@H]2O)c(=O)[nH]1 [guanosine triphosphate]
Description: pEC50 of GTP-induced change in protein thermal stability (2D-TPP). Summed up: (§1)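 Jurkat crude lysate was treated for 10 min at room temperature with five concentrations including vehicle, heated to 12 temperatures (42–63.9 °C) for 3 min, and given NP40 and benzonase (60 min, 4 °C). After ultracentrifugation, soluble protein was quantified by TMT LC-MS/MS, with fold changes against vehicle per temperature, median-normalised. pEC50 comes from dose-response fits per replicate over adjacent temperature pairs, with hits called by permutation-based false discovery rate control. Three independent experiments.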

Compound in the next assay: Nc1ncnc2c1ncn2[C@@H]1O[C@H](COP(=O)(O)OP(=O)(O)OP(=O)(O)O)[C@@H](O)[C@H]1O [adenosine triphosphate]
Description: pEC50 of ATP-induced change in protein thermal stability (2D-TPP). The procedure, abridged:
as §1

As a reminder, the pEC50 is −log10 of the EC50, conventionally taken in molar units.
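Wherever pEC50 of ATP-induced change in protein thermal stability (2D-TPP) is given: lysate dosed with Na-ATP at 0 0.005 0.05 0.5 and 2 mM.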

Chain of UniProt P17858 (P17858 whole entry): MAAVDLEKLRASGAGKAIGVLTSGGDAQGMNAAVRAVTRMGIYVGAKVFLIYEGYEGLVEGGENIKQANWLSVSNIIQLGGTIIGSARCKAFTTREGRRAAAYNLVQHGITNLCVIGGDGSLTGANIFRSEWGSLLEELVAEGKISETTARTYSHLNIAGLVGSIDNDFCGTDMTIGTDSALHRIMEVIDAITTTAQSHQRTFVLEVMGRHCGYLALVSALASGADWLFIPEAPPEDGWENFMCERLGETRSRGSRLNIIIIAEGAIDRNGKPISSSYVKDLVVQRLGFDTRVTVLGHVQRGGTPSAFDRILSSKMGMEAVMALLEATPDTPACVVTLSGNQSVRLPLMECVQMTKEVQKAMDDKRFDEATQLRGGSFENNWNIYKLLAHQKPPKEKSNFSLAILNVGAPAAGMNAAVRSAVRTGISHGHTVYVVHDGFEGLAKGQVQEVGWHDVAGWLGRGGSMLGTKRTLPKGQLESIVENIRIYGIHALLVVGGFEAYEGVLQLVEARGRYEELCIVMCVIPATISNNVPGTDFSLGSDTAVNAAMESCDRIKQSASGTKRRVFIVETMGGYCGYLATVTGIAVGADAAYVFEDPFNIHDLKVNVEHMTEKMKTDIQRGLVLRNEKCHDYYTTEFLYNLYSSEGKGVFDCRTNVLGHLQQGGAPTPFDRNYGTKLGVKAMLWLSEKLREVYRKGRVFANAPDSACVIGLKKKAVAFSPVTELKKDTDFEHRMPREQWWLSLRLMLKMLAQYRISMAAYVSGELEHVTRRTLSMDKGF
Chain of UniProt P11586 (P11586 whole entry): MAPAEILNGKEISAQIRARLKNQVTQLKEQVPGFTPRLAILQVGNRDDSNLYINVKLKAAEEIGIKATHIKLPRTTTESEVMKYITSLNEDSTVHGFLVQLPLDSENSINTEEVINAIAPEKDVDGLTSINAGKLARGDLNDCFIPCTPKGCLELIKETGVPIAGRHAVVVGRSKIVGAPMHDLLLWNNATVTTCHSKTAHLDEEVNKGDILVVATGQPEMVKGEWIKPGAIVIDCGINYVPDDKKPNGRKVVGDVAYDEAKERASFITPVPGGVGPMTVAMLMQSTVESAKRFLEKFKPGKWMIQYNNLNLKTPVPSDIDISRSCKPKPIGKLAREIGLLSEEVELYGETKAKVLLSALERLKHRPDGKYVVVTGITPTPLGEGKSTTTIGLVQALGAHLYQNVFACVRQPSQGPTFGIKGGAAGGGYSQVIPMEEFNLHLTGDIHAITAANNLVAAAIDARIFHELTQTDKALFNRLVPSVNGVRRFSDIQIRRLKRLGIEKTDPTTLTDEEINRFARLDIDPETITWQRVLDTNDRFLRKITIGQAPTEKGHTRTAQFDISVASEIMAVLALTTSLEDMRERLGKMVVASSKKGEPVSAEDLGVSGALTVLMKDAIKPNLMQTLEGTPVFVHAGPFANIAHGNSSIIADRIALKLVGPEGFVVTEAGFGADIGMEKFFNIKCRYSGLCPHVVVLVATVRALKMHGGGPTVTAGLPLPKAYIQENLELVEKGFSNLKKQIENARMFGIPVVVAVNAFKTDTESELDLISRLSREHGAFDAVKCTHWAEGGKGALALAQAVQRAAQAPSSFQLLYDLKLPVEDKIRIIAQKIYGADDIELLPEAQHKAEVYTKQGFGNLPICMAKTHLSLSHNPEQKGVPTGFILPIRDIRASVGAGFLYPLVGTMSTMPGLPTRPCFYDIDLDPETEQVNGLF
Chain of UniProt O96013 (O96013 whole entry, looked up): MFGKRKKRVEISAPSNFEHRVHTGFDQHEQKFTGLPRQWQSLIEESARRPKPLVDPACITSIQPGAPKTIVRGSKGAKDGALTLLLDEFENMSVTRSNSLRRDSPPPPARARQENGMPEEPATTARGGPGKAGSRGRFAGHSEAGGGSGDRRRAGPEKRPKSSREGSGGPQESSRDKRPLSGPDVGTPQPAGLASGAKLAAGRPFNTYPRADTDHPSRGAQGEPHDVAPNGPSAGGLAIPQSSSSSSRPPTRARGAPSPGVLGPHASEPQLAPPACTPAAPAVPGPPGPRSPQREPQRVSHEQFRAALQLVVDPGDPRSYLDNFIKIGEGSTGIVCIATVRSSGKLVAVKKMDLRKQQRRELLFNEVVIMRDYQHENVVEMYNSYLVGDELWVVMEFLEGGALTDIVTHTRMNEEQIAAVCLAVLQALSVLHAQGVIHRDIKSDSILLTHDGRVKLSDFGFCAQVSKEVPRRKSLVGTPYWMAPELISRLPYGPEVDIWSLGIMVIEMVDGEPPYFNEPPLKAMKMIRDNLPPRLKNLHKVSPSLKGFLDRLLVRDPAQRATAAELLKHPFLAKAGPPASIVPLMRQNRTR
Chain of UniProt P33993 (P33993 whole entry): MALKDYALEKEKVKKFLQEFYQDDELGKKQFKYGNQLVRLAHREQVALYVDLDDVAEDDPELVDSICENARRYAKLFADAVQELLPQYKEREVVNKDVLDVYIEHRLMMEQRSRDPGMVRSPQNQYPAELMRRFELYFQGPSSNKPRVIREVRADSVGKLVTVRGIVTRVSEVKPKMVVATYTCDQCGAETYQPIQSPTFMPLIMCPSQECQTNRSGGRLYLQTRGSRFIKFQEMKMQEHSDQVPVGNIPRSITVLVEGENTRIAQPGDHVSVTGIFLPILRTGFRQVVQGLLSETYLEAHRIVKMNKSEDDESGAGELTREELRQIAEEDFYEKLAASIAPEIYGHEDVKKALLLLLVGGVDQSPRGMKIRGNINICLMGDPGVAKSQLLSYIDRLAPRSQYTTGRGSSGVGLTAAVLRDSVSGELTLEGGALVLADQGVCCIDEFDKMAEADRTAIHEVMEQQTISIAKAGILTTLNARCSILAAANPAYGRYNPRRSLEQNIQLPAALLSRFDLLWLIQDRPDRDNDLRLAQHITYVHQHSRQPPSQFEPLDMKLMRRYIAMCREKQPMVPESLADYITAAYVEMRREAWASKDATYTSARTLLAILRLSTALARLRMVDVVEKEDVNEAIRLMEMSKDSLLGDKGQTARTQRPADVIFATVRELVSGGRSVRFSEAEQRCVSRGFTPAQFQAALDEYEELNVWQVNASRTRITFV
Chain of UniProt Q14566 (Q14566 whole entry): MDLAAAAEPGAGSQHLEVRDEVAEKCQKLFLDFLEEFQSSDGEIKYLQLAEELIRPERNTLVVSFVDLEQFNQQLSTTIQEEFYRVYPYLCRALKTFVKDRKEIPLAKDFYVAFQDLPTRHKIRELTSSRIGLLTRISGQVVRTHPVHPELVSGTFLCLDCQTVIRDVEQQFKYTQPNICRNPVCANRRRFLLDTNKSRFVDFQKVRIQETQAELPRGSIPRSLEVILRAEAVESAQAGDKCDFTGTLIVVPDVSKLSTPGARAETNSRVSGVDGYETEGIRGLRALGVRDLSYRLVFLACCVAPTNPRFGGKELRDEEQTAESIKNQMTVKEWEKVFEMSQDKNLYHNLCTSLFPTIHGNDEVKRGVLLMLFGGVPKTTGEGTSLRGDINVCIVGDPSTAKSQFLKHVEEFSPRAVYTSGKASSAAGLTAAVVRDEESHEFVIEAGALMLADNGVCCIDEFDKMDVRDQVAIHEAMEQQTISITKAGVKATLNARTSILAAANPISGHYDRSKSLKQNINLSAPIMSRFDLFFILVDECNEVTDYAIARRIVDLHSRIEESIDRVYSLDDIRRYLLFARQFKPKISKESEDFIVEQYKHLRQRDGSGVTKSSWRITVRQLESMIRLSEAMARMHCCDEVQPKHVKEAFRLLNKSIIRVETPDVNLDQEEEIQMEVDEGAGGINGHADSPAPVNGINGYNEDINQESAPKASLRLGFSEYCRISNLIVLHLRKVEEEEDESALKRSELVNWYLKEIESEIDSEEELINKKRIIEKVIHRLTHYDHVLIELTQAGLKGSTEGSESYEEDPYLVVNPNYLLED
Chain of UniProt O95299 (O95299 whole entry): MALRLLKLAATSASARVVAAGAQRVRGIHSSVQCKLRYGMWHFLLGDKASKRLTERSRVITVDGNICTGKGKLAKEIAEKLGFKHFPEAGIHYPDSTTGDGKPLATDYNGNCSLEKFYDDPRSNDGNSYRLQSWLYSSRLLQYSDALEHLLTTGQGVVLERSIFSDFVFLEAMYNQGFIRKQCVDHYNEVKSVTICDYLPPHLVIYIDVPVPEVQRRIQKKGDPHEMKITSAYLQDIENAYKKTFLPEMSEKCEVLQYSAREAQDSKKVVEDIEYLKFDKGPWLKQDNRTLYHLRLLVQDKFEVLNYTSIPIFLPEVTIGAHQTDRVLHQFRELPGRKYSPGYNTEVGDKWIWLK
Chain of UniProt P05771 (P05771 whole entry, looked up): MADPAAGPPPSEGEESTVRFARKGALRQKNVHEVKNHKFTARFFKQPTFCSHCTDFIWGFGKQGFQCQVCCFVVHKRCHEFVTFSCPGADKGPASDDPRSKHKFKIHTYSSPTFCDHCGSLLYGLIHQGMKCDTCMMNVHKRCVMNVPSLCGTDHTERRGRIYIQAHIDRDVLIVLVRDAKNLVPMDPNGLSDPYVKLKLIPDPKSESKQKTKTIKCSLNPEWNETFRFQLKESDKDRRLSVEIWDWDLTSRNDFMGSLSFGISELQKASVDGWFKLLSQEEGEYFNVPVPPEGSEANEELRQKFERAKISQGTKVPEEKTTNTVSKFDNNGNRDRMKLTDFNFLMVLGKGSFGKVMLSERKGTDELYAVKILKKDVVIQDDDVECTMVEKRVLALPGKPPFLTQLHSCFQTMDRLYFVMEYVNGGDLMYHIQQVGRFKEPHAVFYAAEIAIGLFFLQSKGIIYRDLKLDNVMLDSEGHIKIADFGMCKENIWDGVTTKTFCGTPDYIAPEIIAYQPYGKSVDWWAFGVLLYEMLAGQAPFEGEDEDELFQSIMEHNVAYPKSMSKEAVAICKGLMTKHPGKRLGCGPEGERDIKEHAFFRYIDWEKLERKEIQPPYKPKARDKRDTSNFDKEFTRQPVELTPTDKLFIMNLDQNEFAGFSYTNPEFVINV

Regarding “MCM2 (effect direction: stabilized) (UniProt P49736)”, the pEC50 in the assay with guanosine triphosphate amounted to 4.06; with adenosine triphosphate it was 3.58.

Regarding “MCM4 (effect direction: stabilized) (UniProt P33991)”, the pEC50 with guanosine triphosphate worked out at 3.86; with adenosine triphosphate, 3.88.

Consider “MCM6 (effect direction: stabilized) (UniProt Q14566)”, for which the pEC50 in the assay with guanosine triphosphate was determined as 3.98; with adenosine triphosphate, 4.05.

“MCM7 (effect direction: stabilized) (UniProt P33993)”: the pEC50 in the assay with guanosine triphosphate worked out at 4.14; with adenosine triphosphate, 3.42.

On to “MFN2 (effect direction: stabilized) (UniProt O95140)”, for which the results for the negative logarithm of the EC50 (pEC50) with guanosine triphosphate and with adenosine triphosphate were 4.04 and 3.77, respectively.

For “MTHFD1 (effect direction: stabilized) (UniProt P11586)”, the results for the pEC50 in the assay with guanosine triphosphate and with adenosine triphosphate were 3.95 and 3.71, respectively.

With “MTHFS (effect direction: stabilized) (UniProt P49914)”, the figures for the pEC50 in the assay with guanosine triphosphate and in the assay with adenosine triphosphate were 3.75 and 3.33, respectively.

Take “NDUFA10 (effect direction: stabilized) (UniProt O95299)”: the pEC50 with guanosine triphosphate was 3.81; in the assay with adenosine triphosphate, 3.91.

With “NEK7 (effect direction: stabilized) (UniProt Q8TDX7)”, the negative-log EC50 (pEC50) was determined as 4.11 with guanosine triphosphate and 4.02 with adenosine triphosphate.

Consider “NME4 (effect direction: stabilized) (UniProt O00746)”, for which the pEC50 with guanosine triphosphate turned out to be 4.44; in the assay with adenosine triphosphate, 4.29.

Turning to “NSUN2 (effect direction: stabilized) (UniProt Q08J23)”, the values for the pEC50 with guanosine triphosphate and in the assay with adenosine triphosphate were 3.87 and below 2.7, respectively.

For the target “NUBP2 (effect direction: stabilized) (UniProt Q9Y5Y2)”, the pEC50 came out at 4.71 with guanosine triphosphate and 3.41 with adenosine triphosphate.

On to “OLA1 (effect direction: stabilized) (UniProt Q9NTK5)”, for which the results for the pEC50 with guanosine triphosphate and in the assay with adenosine triphosphate were 3.87 and 3.81, respectively.

In the case of “OSGEP (effect direction: stabilized) (UniProt Q9NPF4)”, the values for the pEC50 with guanosine triphosphate and in the assay with adenosine triphosphate were 3.88 and 3.8, respectively.

Take “PAK4 (effect direction: stabilized) (UniProt O96013)”: the pEC50 with guanosine triphosphate stood at 3.44; with adenosine triphosphate, 4.07.

On to “PEX1 (effect direction: stabilized) (UniProt O43933)”, for which the pEC50 in the assay with guanosine triphosphate turned out to be 3.72; in the assay with adenosine triphosphate, 3.98.

Regarding “PFKL (effect direction: stabilized) (UniProt P17858)”, the pEC50 is 3.54 with guanosine triphosphate and 3.4 with adenosine triphosphate.

As to “PRKAR1A (effect direction: stabilized) (UniProt P10644)”, the pEC50 in the assay with guanosine triphosphate worked out at 3.72; with adenosine triphosphate, 3.85.

Regarding “PRKCB (effect direction: stabilized) (UniProt P05771)”, the pEC50 with guanosine triphosphate was 3.86; in the assay with adenosine triphosphate, 3.44.

As for “PRKCQ (effect direction: stabilized) (UniProt Q04759)”, the pEC50 with guanosine triphosphate turned out to be 4.08; with adenosine triphosphate it was 4.19.

For “RAB2A (effect direction: stabilized) (UniProt P61019)”, the pEC50 was 4.39 with guanosine triphosphate and 3.56 with adenosine triphosphate.

In the case of “RAB2B (effect direction: stabilized) (UniProt Q8WUD1)”, the pEC50 turned out to be 4.52 in the assay with guanosine triphosphate and 3.45 with adenosine triphosphate.

Consider “RAB4A (effect direction: stabilized) (UniProt P20338)”, for which the pEC50 in the assay with guanosine triphosphate was determined as 4.52; with adenosine triphosphate, 3.45.

Take “RAB4B (effect direction: stabilized) (UniProt P61018)”: the pEC50 with guanosine triphosphate was found to be 5; in the assay with adenosine triphosphate, 3.79.

With “RAB5C (effect direction: stabilized) (UniProt P51148)”, the pEC50 with guanosine triphosphate came to 4.49; with adenosine triphosphate it was 4.22.

In the case of “RAB8A (effect direction: stabilized) (UniProt P61006)”, the pEC50 amounted to 4.51 with guanosine triphosphate and 4.15 in the assay with adenosine triphosphate.
